Legend:
Format in all cases: in vivo, mouse
Ts65Dn mice [1] = experiment: Y-maze test, spatial learning and memory
Method: (§1) The study was performed on Ts65Dn male, using the administration of CHF 5074 in the diet (375 ppm, equivalent to approximately 60 mg/kg/day).
(§2) The treatment started at 2 to 3 months of age and it was chronically administered in the diet for 15 months, until 19 months of age.
(§3) Treatment groups were: • Wild-type mice receiving standard diet (N=20) • Wild-type mice receiving CHF 5074-medicated diet (375 ppm, approximately 60 mg/kg/day) (N=20) • Ts65Dn mice receiving standard diet (N=20) • Ts65Dn mice receiving CHF 5074-mediacted diet (375 ppm, approximately 60 mg/kg/day) (N=20)
(§4) Animals were provided by Jackson Laboratory, Bar Harbor, Me., USA) in small cohorts. Ts65Dn segmental male trisomic mice were used. Ts65Dn mice were compared with diploid controls from the same litters.
Spatial learning and memory were assessed with the Y-maze test according to Stewart S et al., J Alzheimer Dis 2011; 26: 105-126, which is incorporated herein by reference in its entirety.
Animals were tested in a single trial Y maze task, to measure arm entries (A) and alternation (B). The percentage of spontaneous alternations is defined as (total alternations/total arm entries-2)×100.

Ts65Dn mice [2] = experiment: CatWalk computerized gait analysis, locomotion
Method: as §1, §2, §3, §4
Locomotion deficits were assessed with the CatWalk technology (gait analysis) according to Faizi M et al., Neurobiol Dis 2011; 43: 397-413, which is incorporated herein by reference in its entirety.
The print area of front and hind paws is presented, as corrected according to the individual animal body weight. […] CHF 5074 treatment normalized this gait parameter.

[3] = test system: Ionized calcium binding adaptor molecule 1 (Iba1); experiment: Activated microglia, Iba1 immunoreactivity in hippocampus; conditions: CA1/2 hippocampus, aged Ts65Dn mice, diet 375 ppm, vs Ts65Dn on standard diet
Method: as §1, §2, §3
(§5) Brain morphology was assessed by immunohistochemistry, immunofluorescence and quantitative morphometry and microdensitometry according to Imbimbo B P et al., J Alzheimer Dis 2010; 20:159-173; Sivilia S et al., BMC Neurosci 2013; 14: 44; and Guidi S et al., Brain 2014; 137: 380-401, all of which are incorporated herein by reference in their entireties. The following proteins were investigated:
Ionized calcium binding adaptor molecule 1 (Iba1), as microglia marker in hippocampus;

[4] = test system: Glial fibrillary acidic protein (GFAP); experiment: Reactive astrocytes, GFAP immunoreactivity in hippocampus; conditions: CA1/2 hippocampus, aged Ts65Dn mice, diet 375 ppm, vs Ts65Dn on standard diet
Method: as §1, §2, §3, §5
Glial fibrillary acidic protein (GFAP) as astrocyte marker in hippocampus;

APP mRNA = APP mRNA expression by real-time PCR in hippocampus and basal ganglia; conditions: wild-type animals, medicated diet for 15 months
Method: Molecular biology markers were measured in hippocampus and basal ganglia by real-time PCR, according to Massella A et al., BMC Neuroscience 2012; 13: 12; and D'Intino G et al., J Neuroendocrinol 2011; 23: 778-790, both of which are incorporated herein by reference in their entireties.

Aβ40 and Aβ42 [5] = experiment: Plasma Aβ40 and Aβ42 by ELISA
Method: as §1, §2, §3
(§6) Aβ40 and Aβ42 were measured by ELISA in plasma and brain extracts (IBL kit for mouse Aβ40/Aβ42);
FIGS. 6 A and B illustrates the plasma levels of Aβ40 and Aβ42 peptides in animals after 15 months of treatment (19 months of age). There was a substantial increase in Aβ40 and Aβ42 plasma levels in Ts65Dn mice compared to wild-type animals.

Aβ40 and Aβ42 [6] = experiment: Brain (cerebral cortex) Aβ40 and Aβ42 by ELISA; conditions: after 15 months of treatment (19 months of age)
Method: as §1, §2, §3, §6
FIGS. 7 A, B, C, and D illustrates the brain (cerebral cortex) levels of Aβ40 and Aβ42 in animals after 15 months of treatment (19 months of age). Results are expressed as pmol/gr proteins (panels A and B), and as fmol/g wet tissue (panels C and D). There was a substantial increase in Aβ40 and Aβ42 brain levels in Ts65Dn mice compared to wild-type animals.

[7] = test system: total APP/Aβ40/Aβ42 peptides; experiment: Intraneuronal APP immunohistochemistry and microdensitometry in cerebral cortex; conditions: Ts65Dn mice treated vs control transgenic animals
Method: Intraneuronal APP was measured by immunohistochemistry and computerized microdensitometry (Chemicon clone 22C11) in cerebral cortex;

[8] = test system: Amyloid precursor protein intracellular domain (AICD); experiment: AICD immunoreactivity in CA1/2 hippocampal neurons; conditions: CA1/2 hippocampal regions, Ts65Dn mice, p<0.0001
Method: Amyloid precursor protein intracellular domain (AICD) (cleavage sites C83 and C99) in hippocampus.
Quantification was carried out by counting the percentage of neurons having AICD-positivity.

Synaptophysin = Synaptophysin immunostaining in hippocampus; conditions: CA1/2 hippocampus, after 15 months of treatment, between experimental groups
Method: as §1, §2, §3, §5
Synaptophysin. It is a pre-synaptic vesicle membrane protein known to mediate vesicle release in hippocampus;
(§7) FIG. 10 illustrates main markers of synaptic transmission in the CA1/2 regions of the hippocampus after 15 months of treatment (19 months of age). […] Panel B reports the variation of immunostaining for the glutamate transporter VGLUT1 with a substantial decrease in Ts65Dn mice compared to wild-type animals. […]

[9] = test system: Vesicular GABA transporter (VGAT); experiment: VGAT immunostaining in hippocampus; conditions: CA1/2 hippocampus, Ts65Dn mice, after 15 months of treatment
Method: as §1, §2, §3, §5
Vesicular GABA transporter (VGAT), as marker of GABAergic synapses in hippocampus;
as §7

[10] = wild-type and Ts65Dn mice, after 15 months of treatment (19 months of age)

## O=C(O)C1(c2ccc(-c3ccc(Cl)c(Cl)c3)c(F)c2)CC1 [CHF 5074, 1-(3′,4′-dichloro-2-fluorobiphenyl-4-yl)cyclopropanecarboxylic acid]
Ts65Dn mice [1]; CHF 5074 in diet 375 ppm (approx. 60 mg/kg/day), tested after 6, 9 and 15 months of treatment
  spontaneous alternation in Y maze (spatial memory): progressively normalized
Ts65Dn mice [1]; diet 375 ppm, after 15 months of treatment
  spontaneous alternation in Y maze compared to wild-type mice: not significantly different
Ts65Dn mice [1]; prolonged oral treatment
  spatial memory deficit (study summary): attenuated
Ts65Dn mice [2]; diet 375 ppm, after 15 months of treatment (19 months of age)
  hind paw print area (gait parameter, corrected for body weight): normalized
Ts65Dn mice [2]; prolonged oral treatment
  locomotion deficit (study summary): completely reversed
[3]
  Iba1-immunoreactivity (activated microglia): substantial reduction
[4]
  GFAP-immunoreactivity (reactive astrocytes): substantial reduction
APP mRNA
  APP mRNA levels: slightly but significantly increased
Aβ40 and Aβ42 [5]; [10]
  plasma level of Aβ40: further increased
  plasma level of Aβ42: further increased
Aβ40 and Aβ42 [5]; wild-type animals, after 15 months of treatment
  significance of the increase in plasma Aβ42: significant
Aβ40 and Aβ42 [6]
  brain Aβ40 levels: did not modify significantly
  brain Aβ42 levels: did not modify significantly
[7]
  intracellular immunoreactivity of total APP/Aβ40/Aβ42 peptides in cortical neurons: significant decrease
[8]
  increase in percentage of AICD-positive neurons: significantly attenuated
Synaptophysin
  synaptophysin levels: no significant differences
[9]
  increase of immunostaining for the GABA transporter VGAT: completely reversed

Source: patent publication US20150335596A1, “1-(2-FLUOROBIPHENYL-4-YL)-CYCLOPROPANECARBOXYLIC ACID DERIVATIVES FOR THE TREATMENT OF DOWN'S SYNDROME” (CHIESI FARMACEUTICI S.P.A., priority 2014, published 2015)
